In PMC8053501 (Diabetes, Metabolic Syndrome and Obesity: Targets and …, 2021):
“Also recorded” adds a separate entry of the source. Like-named read-outs stand apart in the source and are kept apart here.

Key:
[1] = tested on: diabetes mellitus patients; assay: Acute kidney injury; assay type: in vivo, human; details: for Association with AKI, Unadjusted (95% CI) / Association with AKI, Adjusted (95% CI): metformin as reference; for Association with AKI, Adjusted (95% CI): multivariate; for Events During the 90 days (AKI): primary endpoint, first 90 days, patients above 55 years; for Total endpoint (AKI events): primary plus secondary endpoint; for Events at secondary end (AKI): secondary endpoint, after 90 days of hospital admission; for Total Percent (incidence rate of AKI at the end of the study): share of the 4966 total outcomes; for Association with AKI compared to control drug metformin, in words: multivariate analysis
[2] = for Cmax / Tmax / t1/2 / AUC / Tmax determined from the drug concentration in kidney and plasma (and liver): mouse; for Cmax / Tmax / t1/2 / AUC / Drug concentration, time course: oral gavage, 3mg/kg; for AUC: AUC for 24 hr; for Tmax determined from the drug concentration in kidney and plasma (and liver): tissue not separated; for Drug concentration, time course: normal mice
in vivo = details: male, ICR, mouse, po
[3] = Endpoint Diagnosis with 1047 Outcome
[4] = Secondary Diagnosis with 3919 Outcomes

Cc1ccc([C@@H]2O[C@H](CO)[C@@H](O)[C@H](O)[C@H]2O)cc1Cc1ccc(-c2ccc(F)cc2)s1 [Canagliflozin, canagliflozin]
Association with AKI, Unadjusted (95% CI) [1, 3]: 0.85 (0.67–1.21) | Association with AKI, Adjusted (95% CI) [1, 3]: 1.06 (0.68–1.34) | Association with AKI, Unadjusted (95% CI) [1, 4]: 0.89 (0.61–1.25) | Association with AKI, Adjusted (95% CI) [1, 4]: 1.06 (0.91–1.42) | Events During the 90 days (AKI) [1]: 66 | Total endpoint (AKI events) [1]: 267 | Events at secondary end (AKI) [1]: 201 | Total Percent (incidence rate of AKI at the end of the study) [1]: 5.38% | Cmax ([2]; Kidney): 3765 ng/mL | Tmax ([2]; Kidney): 1 h | t1/2 ([2]; Kidney): 2.4 h | AUC ([2]; Kidney): 12,100 ng/mL | Cmax ([2]; Liver): 3217 ng/mL | Tmax ([2]; Liver): 1 h | t1/2 ([2]; Liver): 2.8 h | AUC ([2]; Liver): 10,100 ng/mL | Cmax ([2]; Plasma): 542 ng/mL | Tmax ([2]; Plasma): 1 h | t1/2 ([2]; Plasma): 2.1 h | AUC ([2]; Plasma): 1432 ng/mL | Tmax determined from the drug concentration in kidney and plasma (and liver) [2]: 1 h | Drug concentration, time course ([2]; Kidney, 0h): 0 | Drug concentration, time course ([2]; Kidney, 3h): 5000 | Drug concentration, time course ([2]; Kidney, 6h): 4300 | Drug concentration, time course ([2]; Kidney, 9h): 900 | Drug concentration, time course ([2]; Kidney, 12h): 300 | Drug concentration, time course ([2]; Kidney, 15h): 0 | Drug concentration, time course ([2]; Kidney, 18h): 0 | Drug concentration, time course ([2]; Kidney, 21h): 0 | Drug concentration, time course ([2]; Kidney, 24h): 0 | Drug concentration, time course ([2]; Liver, 0h): 0 | Drug concentration, time course ([2]; Liver, 3h): 4700 | Drug concentration, time course ([2]; Liver, 6h): 3900 | Drug concentration, time course ([2]; Liver, 9h): 600 | Drug concentration, time course ([2]; Liver, 12h): 100 | Drug concentration, time course ([2]; Liver, 15h): 0 | Drug concentration, time course ([2]; Liver, 18h): 0 | Drug concentration, time course ([2]; Liver, 21h): 0 | Drug concentration, time course ([2]; Liver, 24h): 0 | Drug concentration, time course ([2]; Plasma, 0h): 0 | Drug concentration, time course ([2]; Plasma, 3h): 500 | Drug concentration, time course ([2]; Plasma, 6h): 300 | Drug concentration, time course ([2]; Plasma, 9h): 50 | Drug concentration, time course ([2]; Plasma, 12h): 0 | Drug concentration, time course ([2]; Plasma, 15h): 0 | Drug concentration, time course ([2]; Plasma, 18h): 0 | Drug concentration, time course ([2]; Plasma, 21h): 0 | Drug concentration, time course ([2]; Plasma, 24h): 0

CC1=C(C(=O)O)N2C(=O)[C@@H](NC(=O)[C@H](N)c3ccccc3)[C@H]2SC1 [Cephalexin, cephalexin]
Association with AKI, Adjusted (95% CI) [1, 3]: 1.52 (1.31–2.16) | Association with AKI, Adjusted (95% CI) [1, 4]: 1.82 (1.31–2.25) | Association with AKI compared to control drug metformin, in words [1]: increased rate of AKI; also recorded: higher risk for AKI | Events During the 90 days (AKI) [1]: 50 | Total endpoint (AKI events) [1]: 333 | Events at secondary end (AKI) [1]: 283 | Total Percent (incidence rate of AKI at the end of the study) [1]: 6.71% | Drug concentration, time course ([2]; Kidney, 0h): 0 | Drug concentration, time course ([2]; Kidney, 3h): 8130 | Drug concentration, time course ([2]; Kidney, 6h): 5630 | Drug concentration, time course ([2]; Kidney, 9h): 2390 | Drug concentration, time course ([2]; Kidney, 12h): 450 | Drug concentration, time course ([2]; Kidney, 15h): 30 | Drug concentration, time course ([2]; Kidney, 18h): 0 | Drug concentration, time course ([2]; Kidney, 21h): 0 | Drug concentration, time course ([2]; Kidney, 24h): 0 | Drug concentration, time course ([2]; Liver, 0h): 0 | Drug concentration, time course ([2]; Liver, 6h): 7460 | Drug concentration, time course ([2]; Liver, 9h): 4550 | Drug concentration, time course ([2]; Liver, 12h): 1650 | Drug concentration, time course ([2]; Liver, 15h): 340 | Drug concentration, time course ([2]; Liver, 18h): 80 | Drug concentration, time course ([2]; Liver, 21h): 0 | Drug concentration, time course ([2]; Liver, 24h): 0 | Drug concentration, time course ([2]; Plasma, 0h): 0 | Drug concentration, time course ([2]; Plasma, 3h): 360 | Drug concentration, time course ([2]; Plasma, 6h): 70 | Drug concentration, time course ([2]; Plasma, 9h): 30 | Drug concentration, time course ([2]; Plasma, 12h): 0 | Drug concentration, time course ([2]; Plasma, 15h): 0 | Drug concentration, time course ([2]; Plasma, 18h): 0 | Drug concentration, time course ([2]; Plasma, 21h): 0 | Drug concentration, time course ([2]; Plasma, 24h): 0

CCOc1ccc(Cc2cc([C@@H]3O[C@H](CO)[C@@H](O)[C@H](O)[C@H]3O)ccc2Cl)cc1 [Dapagliflozin, dapagliflozin]
Tmax (in vivo): 60 min | Tmax (in vivo; 3 mg/kg): 60 min | half-life (in vivo; 3 mg/kg, t1/2): 168 min | Association with AKI, Unadjusted (95% CI) [1, 3]: 0.94 (0.71–1.25) | Association with AKI, Adjusted (95% CI) [1, 3]: 0.84 (0.72–1.32) | Association with AKI, Unadjusted (95% CI) [1, 4]: 0.81 (0.63–1.33) | Association with AKI, Adjusted (95% CI) [1, 4]: 0.93 (0.58–1.24) | Events During the 90 days (AKI) [1]: 73 | Total endpoint (AKI events) [1]: 298 | Events at secondary end (AKI) [1]: 225 | Total Percent (incidence rate of AKI at the end of the study) [1]: 6% | Total Percent (incidence rate of AKI at the end of the study) ([1]; listed as dapagliflozin): 6.0%

CN(C)C(=N)N=C(N)N [Metformin, metformin]
Tmax (in vivo): 30 min | Tmax (in vivo; 3 mg/kg): 30 min | Association with AKI, Unadjusted (95% CI) [1, 3]: 1 | Association with AKI, Adjusted (95% CI) [1, 3]: 1 | Association with AKI, Unadjusted (95% CI) [1, 4]: 1.0 (Reference) | Association with AKI, Adjusted (95% CI) [1, 4]: 1.0 (Reference) | Events During the 90 days (AKI) [1]: 69 | Total endpoint (AKI events) [1]: 330 | Events at secondary end (AKI) [1]: 261 | Total Percent (incidence rate of AKI at the end of the study) [1]: 6.64%

insulin
Association with AKI, Unadjusted (95% CI) [1, 3]: 2.26 (1.95–2.64) | Association with AKI, Adjusted (95% CI) [1, 3]: 2.36 (1.81–2.87) | Association with AKI, Unadjusted (95% CI) [1, 4]: 2.42 (1.25–2.61) | Association with AKI, Adjusted (95% CI) [1, 4]: 2.73 (2.28–2.90) | Association with AKI compared to control drug metformin, in words [1]: increased rate of AKI; also recorded: higher risk for AKI | Total endpoint (AKI events) [1]: 348 | Events at secondary end (AKI) [1]: 290 | Cmax ([2]; Kidney): 6574 ng/mL | Tmax ([2]; Kidney): 1 h | AUC ([2]; Kidney): 26,742 ng/mL | Cmax ([2]; Liver): 6087 ng/mL | Tmax ([2]; Liver): 1 h | AUC ([2]; Liver): 19,851 ng/mL | Cmax ([2]; Plasma): 879 ng/mL | Tmax ([2]; Plasma): 1 h | AUC ([2]; Plasma): 2985 ng/mL | Tmax determined from the drug concentration in kidney and plasma (and liver) [2]: 1 h | Drug concentration, time course ([2]; Kidney, 0h): 0 | Drug concentration, time course ([2]; Kidney, 3h): 14,200 | Drug concentration, time course ([2]; Kidney, 6h): 10,400 | Drug concentration, time course ([2]; Kidney, 9h): 6400 | Drug concentration, time course ([2]; Kidney, 12h): 3700 | Drug concentration, time course ([2]; Kidney, 15h): 500 | Drug concentration, time course ([2]; Kidney, 18h): 0 | Drug concentration, time course ([2]; Kidney, 21h): 0 | Drug concentration, time course ([2]; Kidney, 24h): 0 | Drug concentration, time course ([2]; Liver, 0h): 0 | Drug concentration, time course ([2]; Liver, 3h): 9400 | Drug concentration, time course ([2]; Liver, 6h): 5050 | Drug concentration, time course ([2]; Liver, 9h): 2380 | Drug concentration, time course ([2]; Liver, 12h): 370 | Drug concentration, time course ([2]; Liver, 15h): 0 | Drug concentration, time course ([2]; Liver, 18h): 0 | Drug concentration, time course ([2]; Liver, 21h): 0 | Drug concentration, time course ([2]; Liver, 24h): 0 | Drug concentration, time course ([2]; Plasma, 0h): 0 | Drug concentration, time course ([2]; Plasma, 3h): 640 | Drug concentration, time course ([2]; Plasma, 6h): 450 | Drug concentration, time course ([2]; Plasma, 9h): 310 | Drug concentration, time course ([2]; Plasma, 12h): 50 | Drug concentration, time course ([2]; Plasma, 15h): 0 | Drug concentration, time course ([2]; Plasma, 18h): 0 | Drug concentration, time course ([2]; Plasma, 21h): 0 | Drug concentration, time course ([2]; Plasma, 24h): 0
